{"source": "patent US20170143674A1", "about": "“Use of Glutaryl Histamine for the Treatment of Respiratory Tract Diseases” (LTD \"VALENTA-INTELLEKT\", priority 2011, published 2017)", "key": {"[1]": {"system": "acute respiratory distress syndrome (ARDS)", "assay": "ARDS model, single intravenous LPS 7.5 mg/kg", "assay_type": "in vivo, rat", "conditions": "for Me (%) (mortality rate): 8 days; for Died: total number 10", "method": "Since an intravenous administration of lipopolysaccharide (LPS) to animals is one of the most acceptable models for studying the pathogenesis, pathomorphological changes and consequences of acute respiratory distress syndrome, this model was used in this example. Tested medicament glutaryl histamine was administered for 9 days after the first administration of LPS, i.e. glutaryl histamine was administered for 12 days in total (3 days before the induction of ARDS and 9 days during and after the induction). The exception was dexamethasone since, according to the literature data and the information leaflet, long-time administration of steroidal anti-inflammatory agents can cause severe side effects. For this reason, dexamethasone was administered according to the following schedule: 49, 24 and 1 hour before the induction of ARDS in a dose of 5 mg/kg, for 3 days after the first injection of LPS in the same dose; the medicament was withdrawn by a gradual dose reduction for 3 days. Thus, dexamethasone was administered 9 times.\nThe mortality rate among the animals administered LPS in an intravenous dose of 7.5 mg/kg was 70% for 8 days. The most of them (60%) died on the first day, in particular, from 4 to 12-16 hours after the injection of LPS. The mortality rate among the animals administered glutaryl histamine was different from the rate in animals treated with dexamethasone; however, most of them also died on the first day, about in the same time period (Table 11)."}, "lacunar tonsillitis": {"system": "lacunar tonsillitis", "assay": "open randomized comparative trial in lacunar tonsillitis", "assay_type": "in vivo, human", "conditions": "90 mg per day for 5 days with standard therapy", "method": "The effectiveness of glutaryl histamine for the treatment of lacunar tonsillitis was studied in an open randomized and comparative trial.\nThe trial included 60 patients which were under medical supervision. When admitted to hospital, patients were randomized into two groups by a random sampling technique. The patients of the first group (30 subjects) received glutaryl histamine in an amount of 90 mg (1 pill) per day for 5 days (450 mg course dose) and standard therapy comprising antibacterial medicaments (penicillin 1 g I.M. 4 times a day or cefasoline 1 g I.M. 3 times a day for 7 days) and nosotropic agents. The patients of the second group (30 subjects) received only standard therapy.\nLaboratory analysis included: general blood test, determination of C-reactive protein, and microbiological analysis of tonsil smears. Laboratory data were analyzed on day 6 of the treatment. […]\nStatistical treatment of the obtained results. Values of quantitative variables were expressed as M±SE, wherein M is a mean value, and SE is a standard error of the mean. […]"}}, "note": "“Also recorded” adds a separate entry of the source."}
{"smiles": "O=C(O)CCCC(=O)NCCc1c[nH]cn1", "note": "[glutaryl histamine]", "values": [{"measurement": "IP (%) (protective index)", "setting": "[1]; Glutaryl histamine 0.5 mg/kg", "value": 57.1, "unit": "%"}, {"measurement": "S (%) (survival rate)", "setting": "[1]; Glutaryl histamine 0.5 mg/kg", "value": 70, "unit": "%"}, {"measurement": "Me (%) (mortality rate)", "setting": "[1]; Glutaryl histamine 0.5 mg/kg", "value": 30, "unit": "%"}, {"measurement": "Died", "setting": "[1]; Glutaryl histamine 0.5 mg/kg", "value": 3}, {"measurement": "IP (%) (protective index)", "setting": "[1]; Glutaryl histamine 3 mg/kg", "value": 28.6, "unit": "%"}, {"measurement": "S (%) (survival rate)", "setting": "[1]; Glutaryl histamine 3 mg/kg", "value": 50, "unit": "%"}, {"measurement": "Me (%) (mortality rate)", "setting": "[1]; Glutaryl histamine 3 mg/kg", "value": 50, "unit": "%"}, {"measurement": "Died", "setting": "[1]; Glutaryl histamine 3 mg/kg", "value": 5}, {"measurement": "IP (%) (protective index)", "setting": "[1]; Glutaryl histamine 9 mg/kg", "value": 42.9, "unit": "%"}, {"measurement": "S (%) (survival rate)", "setting": "[1]; Glutaryl histamine 9 mg/kg", "value": 60, "unit": "%"}, {"measurement": "Me (%) (mortality rate)", "setting": "[1]; Glutaryl histamine 9 mg/kg", "value": 40, "unit": "%"}, {"measurement": "Died", "setting": "[1]; Glutaryl histamine 9 mg/kg", "value": 4}, {"measurement": "IP (%) (protective index)", "setting": "[1]; Glutaryl histamine 18 mg/kg", "value": 28.6, "unit": "%"}, {"measurement": "S (%) (survival rate)", "setting": "[1]; Glutaryl histamine 18 mg/kg", "value": 50, "unit": "%"}, {"measurement": "Me (%) (mortality rate)", "setting": "[1]; Glutaryl histamine 18 mg/kg", "value": 50, "unit": "%"}, {"measurement": "Died", "setting": "[1]; Glutaryl histamine 18 mg/kg", "value": 5}, {"measurement": "IP (%) (protective index)", "setting": "[1]; Glutaryl histamine 27 mg/kg", "value": 71.4, "unit": "%"}, {"measurement": "S (%) (survival rate)", "setting": "[1]; Glutaryl histamine 27 mg/kg", "value": 80, "unit": "%"}, {"measurement": "Me (%) (mortality rate)", "setting": "[1]; Glutaryl histamine 27 mg/kg", "value": 20, "unit": "%"}, {"measurement": "Died", "setting": "[1]; Glutaryl histamine 27 mg/kg", "value": 2}, {"measurement": "IP (%) (protective index)", "setting": "[1]; Glutaryl histamine 45 mg/kg", "value": 28.6, "unit": "%"}, {"measurement": "S (%) (survival rate)", "setting": "[1]; Glutaryl histamine 45 mg/kg", "value": 50, "unit": "%"}, {"measurement": "Me (%) (mortality rate)", "setting": "[1]; Glutaryl histamine 45 mg/kg", "value": 50, "unit": "%"}, {"measurement": "Died", "setting": "[1]; Glutaryl histamine 45 mg/kg", "value": 5}, {"measurement": "tolerability / undesirable symptoms", "setting": "lacunar tonsillitis", "value": "well tolerated; also recorded: none of the cases had undesirable symptoms"}]}
